# Like-named read-outs stand apart in the source and are kept apart here.
# Experiments:
# cocklebur = test: Test B pre-/postemergence herbicide test; assay type: in vivo, Xanthium strumarium; settings: Xanthium strumarium; for pest or weed control at 500 g/ha: 500 g ai/ha; for pest or weed control at 125 g/ha: 125 g ai/ha
# How it was run: (§1)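 Seeds were planted and treated preemergence with compounds formulated in a non-phytotoxic solvent mixture containing surfactant, while plants at the 1- to 4-leaf stage (2 to 18 cm) received postemergence sprays. Flooded paddy plants were grown to the 2-leaf stage. After 13 to 15 days in a greenhouse, injury was visually rated 0–100 against untreated controls.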
# blackgrass = test: Test B postemergence herbicide test; assay type: in vivo, Alopecurus myosuroides; settings: scale 0 (no effect) to 100 (complete control)
# How it was run: (§2)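 Postemergence plants were sprayed with formulated test chemicals at 2 to 18 cm height (1- to 4-leaf stage); paddy species were grown to the 2-leaf stage. After 13 to 15 days in a greenhouse, injury was rated visually against untreated controls on a 0–100 scale (0 = no effect, 100 = complete control).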
# wild oat = test: Test B postemergence herbicide test; assay type: in vivo, Avena fatua; settings: scale 0 (no effect) to 100 (complete control)
# How it was run: (§3)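 Read-out: visual comparison with controls, scored 0 to 100, where 100 means complete control and 0 no effect. Formulated chemicals were applied postemergence to plants 2–18 cm tall (1- to 4-leaf), or to flooded-paddy plants at the 2-leaf stage, then held 13 to 15 days under glass.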
# ducksalad = test: Test B flooded paddy test; assay type: in vivo, Heteranthera limosa; settings: Heteranthera limosa, 336 h, 1000 g ai/ha, visual rating, scale 0 to 100 (0 no effect, 100 complete control), 13 to 15 days, read-out: Ducksalad plant response rating
# How it was run: as §2
# lambsquarters = test: Test B pre-/postemergence herbicide test; assay type: in vivo, Chenopodium album; settings: Chenopodium album, 336 h; for pest or weed control at 125 g/ha: 125 g ai/ha
# How it was run: (§4)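 Visual rating, 0 (no effect) to 100 (complete control), versus untreated controls after 13–15 d in greenhouse. Pre- and postemergence applications (postemergence plants 2–18 cm, 1–4 leaves); flooded paddy arm at 2-leaf stage. Compounds in non-phytotoxic solvent plus surfactant.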
# [1] = system: small flower umbrella sedge; test: Test B flooded paddy test; assay type: in vivo, Cyperus difformis; settings: Cyperus difformis, 336 h, 1000 g ai/ha, visual rating, scale 0 to 100 (0 no effect, 100 complete control), 13 to 15 days, read-out: Sedge, Umbrella plant response rating
# How it was run: as §2
# pigweed = test: Test B pre-/postemergence herbicide test; assay type: in vivo, Amaranthus retroflexus; settings: Amaranthus retroflexus, 336 h; for pest or weed control at 125 g/ha: 125 g ai/ha
# How it was run: as §4
# rice = test: Test B flooded paddy test; assay type: in vivo, Oryza sativa; settings: Oryza sativa, 336 h, 1000 g ai/ha, visual rating, scale 0 to 100 (0 no effect, 100 complete control), 13 to 15 days, read-out: Rice plant response rating
# How it was run: as §3
# corn = test: Test B pre-/postemergence herbicide test; assay type: in vivo, Zea mays; settings: Zea mays
# How it was run: as §4
# giant foxtail = test: Test B pre-/postemergence herbicide test; assay type: in vivo, Setaria faberi; settings: Setaria faberi, 336 h; for pest or weed control at 500 g/ha: 500 g ai/ha; for pest or weed control at 125 g/ha: 125 g ai/ha
# How it was run: as §4
# morningglory = test: Test B pre-/postemergence herbicide test; assay type: in vivo, Ipomoea coccinea; settings: Ipomoea, 336 h; for pest or weed control at 125 g/ha: 125 g ai/ha
# How it was run: as §1
# velvetleaf = test: Test B pre-/postemergence herbicide test; assay type: in vivo, Abutilon theophrasti; settings: Abutilon theophrasti, 336 h; for pest or weed control at 125 g/ha: 125 g ai/ha
# How it was run: as §4
# barnyardgrass = test: Test B pre-/postemergence herbicide test; assay type: in vivo, Echinochloa crus-galli; settings: Echinochloa crus-galli; for pest or weed control at 500 g/ha: 500 g ai/ha; for pest or weed control at 125 g/ha: 125 g ai/ha
# How it was run: as §1
# Surinam grass = test: Test B pre-/postemergence herbicide test; assay type: in vivo, Urochloa decumbens; settings: Urochloa decumbens; for pest or weed control at 125 g/ha: 125 g ai/ha
# How it was run: as §4
# large crabgrass = test: Test B pre-/postemergence herbicide test; assay type: in vivo, Digitaria sanguinalis; settings: Digitaria sanguinalis; for pest or weed control at 500 g/ha: 500 g ai/ha; for pest or weed control at 125 g/ha: 125 g ai/ha
# How it was run: as §4
# [2] = Postemergence, 500 g ai/ha, visual rating after 13 to 15 days
smiles,measurement,setting,value
"CCOC(=O)c1cccc(NC(=O)c2cc(C(C)(C)C)nn2CC)c1 [Compound 80, ethyl 3-[[[3-(1,1-dimethylethyl)-1-ethyl-1H-pyrazol-5-yl]carbonyl]-amino]benzoate]",pest or weed control at 500 g/ha,"cocklebur; post-emergence, Postemergence, visual rating after 13 to 15 days, scale 0 (no effect) to 100 (complete control), read-out: Plant response rating, Cocklebur",100%
same,pest or weed control at 125 g/ha,"cocklebur; post-emergence, postemergence, visual rating, scale 0 (no effect) to 100 (complete control), read-out: Cocklebur plant response rating",70%
same,pest or weed control at 500 g/ha,"cocklebur; pre-emergence, Preemergence, scale 0 to 100, read-out: Cocklebur plant response rating",0%
same,pest or weed control at 125 g/ha,"cocklebur; pre-emergence, preemergence, 0 to 100 scale, 0 is no effect, 100 is complete control, read-out: Plant response rating, Cocklebur",0%
same,pest or weed control at 125 g/ha,"blackgrass; Alopecurus myosuroides, post-emergence, 336 h, postemergence, 125 g ai/ha, visual rating, read-out: Blackgrass plant response rating",20%
same,"Plant response rating, Blackgrass",blackgrass; [2],40
same,pest or weed control at 125 g/ha,"wild oat; Avena fatua, post-emergence, 336 h, postemergence, 125 g ai/ha, visual rating, read-out: Oat, Wild plant response rating",30%
same,"Plant response rating, Oat, Wild",wild oat; [2],50
same,pest or weed control at 1000 g/ha,ducksalad,90%
same,pest or weed control at 500 g/ha,"lambsquarters; post-emergence, Postemergence, 500 g ai/ha, visual rating after 13 to 15 days, scale 0 (no effect) to 100 (complete control), read-out: Plant response rating, Lambsquarters",80%
same,pest or weed control at 125 g/ha,"lambsquarters; post-emergence, postemergence, visual rating, scale 0 (no effect) to 100 (complete control), read-out: Lambsquarters plant response rating",70%
same,pest or weed control at 125 g/ha,"lambsquarters; pre-emergence, preemergence, 0 to 100 scale, 0 is no effect, 100 is complete control, read-out: Plant response rating, Lambsquarters",0%
same,pest or weed control at 1000 g/ha,[1],80%
same,pest or weed control at 500 g/ha,"pigweed; post-emergence, Postemergence, 500 g ai/ha, visual rating after 13 to 15 days, scale 0 (no effect) to 100 (complete control), read-out: Plant response rating, Pigweed",100%
same,pest or weed control at 125 g/ha,"pigweed; post-emergence, postemergence, visual rating, scale 0 (no effect) to 100 (complete control), read-out: Pigweed plant response rating",100%
same,pest or weed control at 125 g/ha,"pigweed; pre-emergence, preemergence, 0 to 100 scale, 0 is no effect, 100 is complete control, read-out: Plant response rating, Pigweed",0%
same,plant injury at 1000 g/ha,rice,60%
same,"Corn plant response rating (crop injury, 0 = no effect, 100 = complete kill) at 500 g/ha","corn; post-emergence, Postemergence, 500 g ai/ha, visual rating after 13 to 15 days, scale 0 (no effect) to 100 (complete control)",50%
same,plant injury at 125 g/ha,"corn; post-emergence, postemergence, 125 g ai/ha, visual rating, scale 0 (no effect) to 100 (complete control), read-out: Corn plant response rating",20%
same,plant injury at 500 g/ha,"corn; pre-emergence, Preemergence, 500 g ai/ha, scale 0 to 100, read-out: Corn plant response rating",10%
same,"Corn plant response rating (crop injury, 0 = no effect, 100 = complete kill) at 125 g/ha","corn; pre-emergence, preemergence, 125 g ai/ha, 0 to 100 scale, 0 is no effect, 100 is complete control",0%
same,pest or weed control at 500 g/ha,"giant foxtail; post-emergence, Postemergence, visual rating after 13 to 15 days, scale 0 (no effect) to 100 (complete control), read-out: Plant response rating, Foxtail, Giant",90%
same,pest or weed control at 125 g/ha,"giant foxtail; post-emergence, postemergence, visual rating, scale 0 (no effect) to 100 (complete control), read-out: Foxtail, Giant plant response rating",50%
same,pest or weed control at 500 g/ha,"giant foxtail; pre-emergence, Preemergence, scale 0 to 100, read-out: Foxtail, Giant plant response rating",70%
same,pest or weed control at 125 g/ha,"giant foxtail; pre-emergence, preemergence, 0 to 100 scale, 0 is no effect, 100 is complete control, read-out: Plant response rating, Foxtail, Giant",20%
same,pest or weed control at 500 g/ha,"morningglory; post-emergence, Postemergence, 500 g ai/ha, visual rating after 13 to 15 days, scale 0 (no effect) to 100 (complete control), read-out: Plant response rating, Morningglory",100%
same,pest or weed control at 125 g/ha,"morningglory; post-emergence, postemergence, visual rating, scale 0 (no effect) to 100 (complete control), read-out: Morningglory plant response rating",100%
same,pest or weed control at 125 g/ha,"morningglory; pre-emergence, preemergence, 0 to 100 scale, 0 is no effect, 100 is complete control, read-out: Plant response rating, Morningglory",0%
same,pest or weed control at 500 g/ha,"velvetleaf; post-emergence, Postemergence, 500 g ai/ha, visual rating after 13 to 15 days, scale 0 (no effect) to 100 (complete control), read-out: Plant response rating, Velvetleaf",100%
same,pest or weed control at 125 g/ha,"velvetleaf; post-emergence, postemergence, visual rating, scale 0 (no effect) to 100 (complete control), read-out: Velvetleaf plant response rating",90%
same,pest or weed control at 125 g/ha,"velvetleaf; pre-emergence, preemergence, 0 to 100 scale, 0 is no effect, 100 is complete control, read-out: Plant response rating, Velvetleaf",20%
same,pest or weed control at 500 g/ha,"barnyardgrass; post-emergence, Postemergence, visual rating after 13 to 15 days, scale 0 (no effect) to 100 (complete control), read-out: Plant response rating, Barnyardgrass",90%
same,pest or weed control at 125 g/ha,"barnyardgrass; post-emergence, postemergence, visual rating, scale 0 (no effect) to 100 (complete control), read-out: Barnyardgrass plant response rating",80%
same,pest or weed control at 500 g/ha,"barnyardgrass; pre-emergence, Preemergence, scale 0 to 100, read-out: Barnyardgrass plant response rating",20%
same,pest or weed control at 125 g/ha,"barnyardgrass; pre-emergence, preemergence, 0 to 100 scale, 0 is no effect, 100 is complete control, read-out: Plant response rating, Barnyardgrass",0%
same,pest or weed control at 500 g/ha,"Surinam grass; post-emergence, Postemergence, 500 g ai/ha, visual rating after 13 to 15 days, scale 0 (no effect) to 100 (complete control), read-out: Plant response rating, Surinam Grass",90%
same,pest or weed control at 125 g/ha,"Surinam grass; post-emergence, postemergence, visual rating, scale 0 (no effect) to 100 (complete control), read-out: Surinam Grass plant response rating",90%
same,pest or weed control at 125 g/ha,"Surinam grass; pre-emergence, preemergence, 0 to 100 scale, 0 is no effect, 100 is complete control, read-out: Plant response rating, Surinam Grass",0%
same,pest or weed control at 500 g/ha,"large crabgrass; post-emergence, Postemergence, visual rating after 13 to 15 days, scale 0 (no effect) to 100 (complete control), read-out: Plant response rating, Crabgrass, Large",100%
same,pest or weed control at 125 g/ha,"large crabgrass; post-emergence, postemergence, visual rating, scale 0 (no effect) to 100 (complete control), read-out: Crabgrass, Large plant response rating",100%
same,pest or weed control at 500 g/ha,"large crabgrass; pre-emergence, Preemergence, scale 0 to 100, read-out: Crabgrass, Large plant response rating",0%
same,pest or weed control at 125 g/ha,"large crabgrass; pre-emergence, preemergence, 0 to 100 scale, 0 is no effect, 100 is complete control, read-out: Plant response rating, Crabgrass, Large",0%
